Here are results for 1 compound from publication PMC5400620, “Preclinical therapeutic efficacy of a novel blood-brain barrier-penetrant dual PI3K/mTOR inhibitor with preferential response in PI3K/PTEN mutant glioma” (Oncotarget, 2017).

The experiment deals with LN229. Description: LN229 intracranial model efficacy. It counts as in vivo. The conditions noted are these: LN229 tumor-bearing mice, PTEN wild type. As to the method:
We studied the efficacy of DS in 2 intracranial tumor models; the U87 glioma cell line and the GSC11 glioma initiating cell line are both PTEN mutant and GSC-11 is PIK3CA mutant cells. The median survival time of the U87 tumor-bearing control mice (i.e., those injected with methylcellulose only) was 30 days, whereas the median survival time of the U87 tumor-bearing mice orally treated with 6 mg/kg of DS was 46 days (Figure 4A; P=0.025). The median survival of the GSC11 tumor-bearing mice orally treated with 6 mg/kg of DS was 61 days (Figure 4B; P=0.014) compared with 47 days for the control-treated mice. The in vivo therapeutic efficacy of DS was assessed by plotting the Kaplan-Meier survival curves of the animals, and group data were compared using the log-rank test (Figure 4A and 4B). […] We also studied LN229 a PTEN wild type cell line to study the efficacy of DS in intracranial model.

For the compound `CC(=O)N1CCN(c2nc3c(N4CCOCC4)nc(-c4cnc(N)nc4)nc3n2CC(F)(F)F)C[C@H]1C` [DS, 1-{(2R)-4-[2-(2-Aminopyrimidin-5-yl)-6-(morpholin-4-yl)-9-(2,2,2-trifluoroethyl)-9H-purin-8-yl]-2-methylpiperazin-1-yl}ethan-1-one], the “effect on median survival” value is given as “no effect on median survival”.
